Values of other authors as cited in patent US7442834B2, “Process suitable for industrial scale production of gabapentin” (priority 2006, dated 2008).

Tests used:
[1] = from U.S. Pat. No. 6,518,456
[2] = in vivo

| SMILES | isoelectric point (pH) [1] | LD50 (cytotoxicity) [2] [mg/kg] |
| --- | --- | --- |
| NCC1(CC(=O)O)CCCCC1 [gabapentin (I), 1-(aminomethyl)-1-cyclohexaneacetic acid] | 7.1-7.2 | > 8000 |
| O=C1CC2(CCCCC2)CN1 [IV, 3,3-pentamethylenebutyrolactam] | – | 300 |
